The assay has as its target T1, Kv1.3 (Homo sapiens, UniProt P22001).
T1 construct: expressed in transfected cells; host or cells: CHO (Kv1.3/CHO)
Briefly: Electrophysiology: planar patch-clamp of Kv1.3 currents, IC50 from steady state current amplitude. As to conditions: Kv1.3 electrophysiology, results according to Method D1, read-out: IC50 (Kv1.3 ephys steady state). The class given is cell-based. The protocol: The inhibition data shown for the compounds of the list below was calculated using the steady state current amplitude at the end of the depolarising pulse in patch clamp evaluations (as described in the Biology Protocols: 1. Electrophysiology).
Kv1.x currents were measured in Kv1.3/CHO or Kv1.5/CHO cells using a planar electrode version (Nanion Technologies GMBH) of the patch-clamp technique. Whole-cell Kv1.x current transients were evoked by 500 ms depolarising voltage pulses to +40 mV from a holding potential of −80 mV applied at 10 s intervals for Kv1.5 and at 30 s intervals for Kv1.3 to allow adequate time for recovery from inactivation. Cells were continuously bathed in a buffered saline solution containing (mM): 160 NaCl, 4.5 KCl, 2 CaCl2, 1 MgCl2, 5 glucose, 10 HEPES, pH 7.4, 290-310 mOsm·Kg^−1. The internal (pipette) solution contained (mM): 10 NaCl, 70 KF, 75 KCl, 2 MgCl2, 10 HEPES, 10 EGTA, pH 7.2, 290-310 mOsm·Kg^−1. Series resistance compensation (60-80%) was applied to cells in which the peak current amplitude exceeded 2 nA.
Compound Preparation and Potency Assessment
Compounds were initially dissolved in DMSO to 10 mM. After further dilution in DMSO, compounds were finally diluted in bath solution 1/200 (to give a final DMSO concentration of 0.5%) and applied directly to the recording chamber. Compounds were added at increasing concentrations allowing ample time for steady state block to be achieved between each concentration. Each compound was tested at 5-6 different concentrations on 2-3 cells. Compound IC50 values were determined by fitting the average normalised reduction of either the current integral or the steady state current amplitude at the end of the 500 ms depolarising pulse obtained at each compound concentration to the Hill equation. The IC50 data reported herein is based on the steady state calculation.

pIC50: −log10 of the molar value.

T1 sequence (P22001 whole entry): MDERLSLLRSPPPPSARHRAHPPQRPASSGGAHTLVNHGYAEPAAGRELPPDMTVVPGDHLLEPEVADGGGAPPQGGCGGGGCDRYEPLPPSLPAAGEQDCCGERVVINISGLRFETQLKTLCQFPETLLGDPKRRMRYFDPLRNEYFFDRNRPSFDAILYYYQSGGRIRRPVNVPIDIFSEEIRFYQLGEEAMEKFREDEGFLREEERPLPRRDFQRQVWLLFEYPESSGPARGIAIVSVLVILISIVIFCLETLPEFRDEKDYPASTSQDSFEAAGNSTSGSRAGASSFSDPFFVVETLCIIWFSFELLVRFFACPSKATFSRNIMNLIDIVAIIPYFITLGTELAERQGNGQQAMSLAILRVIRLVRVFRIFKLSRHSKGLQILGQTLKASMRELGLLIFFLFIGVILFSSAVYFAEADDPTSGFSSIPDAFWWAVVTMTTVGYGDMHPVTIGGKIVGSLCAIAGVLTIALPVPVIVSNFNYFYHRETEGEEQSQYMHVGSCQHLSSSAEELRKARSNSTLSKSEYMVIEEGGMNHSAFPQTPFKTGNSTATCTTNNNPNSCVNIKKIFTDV

For the compound `CCC(c1ccc(S(C)(=O)=O)cc1)N(Cc1ccc(C(F)(F)F)nc1)C(=O)C1CC1c1ccc(F)cc1F` (centres unmarked) [Example 128], the pIC50 was 6.70 to 7.30.

For the compound `O=C(C1CC1c1ccc(F)cc1)N(Cc1ncccc1F)C(c1ccc(F)cc1)C1CCOC1` (centres unmarked) [Example 171], the pIC50 was 6.00 to 6.70.

As to `O=C(CS(=O)(=O)c1ccc(F)cc1)N(Cc1ccc(C(F)(F)F)nc1)C(c1ccc(OC(F)F)cc1)C1CC1` (centres unmarked) [Example 312], the pIC50 was 6.70 to 7.30.

In the case of `O=C(C1CC1c1ccc(F)cc1)N(Cc1ccccn1)C(c1ccc(Cl)cc1)C1CC1` (centres unmarked) [Example 10, N-[(4-chlorophenyl)(cyclopropyl)methyl]-2-(4-fluorophenyl)-N-(pyridin-2-ylmethyl)cyclopropanecarboxamide], the negative-log IC50 (pIC50) was 6.70 to 7.30.

Turning to `C[C@@H](CC(=O)N(Cc1ccccn1)C(c1ccc(Cl)cc1)C1CC1)c1ccc(F)cc1` (single isomer, unassigned) [Example 8], the pIC50 is > 7.30.

As for `COc1ccc(CN(C(=O)CS(=O)(=O)c2ccc(F)cc2)C(c2ccc(Cl)cc2)C2CC2)cn1` (centres unmarked) [Example 295], the negative logarithm of the IC50 (pIC50) is 6.70 to 7.30.

Take `CC(CC(=O)N(Cc1ccc(C(F)(F)F)nc1)C(C)c1ccc2c(c1)CCC2)c1ccc(F)cc1` (single isomer, unassigned) [Compound 39, N-[1-(2,3-dihydro-1H-inden-5-yl)ethyl]-3-(4-fluorophenyl)-N-{[6-(trifluoromethyl)pyridin-3-yl]methyl}butanamide]: the pIC50 is 6.70 to 7.30.

In the case of `CCS(=O)(=O)c1cccc(C(C2CC2)N(Cc2ccc(F)cn2)C(=O)C2CC2c2ccc(F)c(F)c2)c1` (centres unmarked) [Example 197], the pIC50 is 6.70 to 7.30.

On to `CCC(c1ccc(S(=O)(=O)CC)cc1)N(Cc1ccc(C(F)(F)F)nc1)C(=O)C1CC1c1ccc(F)cc1F` (centres unmarked) [Example 119], for which the pIC50 was 6.70 to 7.30.

As to `CC(C)C(c1ccc(OC(F)F)cc1)N(Cc1ccc(F)cn1)C(=O)C1CC1c1ccc(F)cc1` (centres unmarked) [Example 110], the pIC50 was > 7.30.

Regarding `O=C(CS(=O)(=O)c1cccc(C(F)(F)F)c1)N(Cc1ccccn1)C(c1ccc(Cl)cc1)C1CC1` (centres unmarked) [Example 293], the pIC50 was 6.70 to 7.30.

Turning to `O=C(CS(=O)(=O)c1ccc(F)cc1)N(Cc1ccc(F)cn1)C(c1ccc(Cl)cc1)C1CC1` (centres unmarked) [Example 290], the pIC50 was 6.70 to 7.30.

In the case of `O=C(C1CC1c1ccc(F)cc1)N(Cc1cccnn1)C(c1ccc(F)cc1)C1CCOC1` (centres unmarked) [Example 174], the pIC50 is 6.70 to 7.30.

On to `O=C(CS(=O)(=O)c1ccc(F)cc1)N(Cc1ccccn1)C(c1ccc(OC(F)F)cc1)C1CC1` (centres unmarked) [Example 314], for which the pIC50 was 6.00 to 6.70.

`CCS(=O)(=O)c1ccc(C(C2CC2)N(Cc2ccc(F)cn2)C(=O)C2CC2c2ccc(F)cc2)cc1` (centres unmarked) [Example 233]: the negative logarithm of the IC50 (pIC50) was 6.70 to 7.30.

For the compound `O=C(CC1(c2ccc(F)cc2)CC1)N(Cc1ccccn1)[C@@H](c1ccc(Cl)cc1)C1CC1` (single isomer, unassigned) [Example 95, N-[(4-chlorophenyl)(cyclopropyl)methyl]-2-[1-(4-fluorophenyl)cyclopropyl]-N-(pyridin-2-ylmethyl)acetamide], the pIC50 is > 7.30.

As to `O=C(C1CC1c1ccc(F)cc1)N(Cc1ccc(F)cn1)C(c1ccc(F)cc1)C1CCOC1` (centres unmarked) [Example 175], the pIC50 is 6.00 to 6.70.

In the case of `CCS(=O)(=O)c1cccc(C(C2CC2)N(Cc2ccc(F)cn2)C(=O)C2CC2c2ccc(F)cc2F)c1` (centres unmarked) [Example 196], the pIC50 was 6.70 to 7.30.

In the case of `CC(CC(=O)N(Cc1cccnn1)C(c1ccc(OC(F)F)cc1)C1CC1)c1ccc(F)cc1` (centres unmarked) [Example 262], the pIC50 was > 7.30.

On to `CC(C)(C(=O)N(Cc1ccc(C(F)(F)F)nc1)C(c1ccc(OC(F)F)cc1)C1CC1)S(=O)(=O)c1ccccc1` (centres unmarked) [Example 324], for which the pIC50 is 6.70 to 7.30.

On to `CCC(c1ccc(S(C)(=O)=O)cc1)N(Cc1ccc(C(F)(F)F)nc1)C(=O)C1CC1c1ccc(F)cc1` (centres unmarked) [Example 120], for which the pIC50 is 6.00 to 6.70.

Turning to `O=C(CS(=O)(=O)c1ccccc1)N(Cc1ncccc1F)C(c1ccc(OC(F)F)cc1)C1CC1` (centres unmarked) [Example 303], the pIC50 was 6.70 to 7.30.

As to `C[C@H](CC(=O)N(Cc1ccccn1)C(c1ccc(Cl)cc1)C1CC1)c1ccc(F)cc1` (single isomer, unassigned) [Example 5], the negative-log IC50 (pIC50) is > 7.30.

`CCS(=O)(=O)c1cccc([C@H](C2CC2)N(Cc2ccc(C(F)(F)F)nc2)C(=O)[C@@H]2C[C@H]2c2ccc(F)cc2)c1` [Example 100, (1R, 2R)-2-(4-Fluoro-phenyl)-cyclopropanecarboxylic acid [(S)-cyclopropyl-(3-ethanesulfonyl-phenyl)-methyl]-(6-trifluoromethyl-pyridin-3-ylmethyl)-amide]: the pIC50 was 6.70 to 7.30.

`CC(C)[C@@H](c1ccc(F)cc1)N(CCN1CCC(F)CC1)C(=O)C1(S(=O)(=O)c2ccc(F)cc2)CC1` (single isomer, unassigned) [Example 94]: the pIC50 was 6.70 to 7.30.

On to `CN1CC(C(c2ccc(OC(F)(F)F)cc2)N(Cc2ccc(F)cn2)C(=O)C2CC2c2ccc(F)cc2)C1` (centres unmarked) [Example 159], for which the pIC50 was 6.00 to 6.70.

As to `CCS(=O)(=O)c1ccc(C(C2CC2)N(Cc2ccc(F)cn2)C(=O)C2CC2c2cccc(C(F)(F)F)c2)cc1` (centres unmarked) [Example 228], the negative logarithm of the IC50 (pIC50) was 6.70 to 7.30.

With `O=C(CS(=O)(=O)c1ccc(F)cc1)N(Cc1ccccn1)C(c1ccccc1OCC(F)F)C1CC1` (centres unmarked) [Example 329], the negative logarithm of the IC50 (pIC50) was 6.70 to 7.30.

As for `O=C(CS(=O)(=O)c1ccccc1F)N(Cc1ccc(C(F)(F)F)nc1)C(c1ccc(OC(F)F)cc1)C1CC1` (centres unmarked) [Example 300], the pIC50 was 6.70 to 7.30.

Regarding `Cn1cc(CN(C(=O)C2CC2c2ccc(F)cc2)C(c2ccc(OC(F)F)cc2)C2CC2)cn1` (centres unmarked) [Example 190], the pIC50 was > 7.30.

`CC(CC(=O)N(Cc1cccnn1)C(c1ccc(OC(F)F)cc1)C1CC1)c1ccccc1C(F)(F)F` (centres unmarked) [Example 261]: the pIC50 was 6.00 to 6.70.

As for `CCS(=O)(=O)c1ccc(C(C2CC2)N(Cc2ccc(F)cn2)C(=O)C2CC2c2cccc(C(F)(F)F)c2)cc1` (centres unmarked) [Example 227], the pIC50 is 6.70 to 7.30.

Take `CC(c1ccc(S(C)(=O)=O)cc1)N(Cc1ccc(C(F)(F)F)nc1)C(=O)C(C)(C)S(=O)(=O)c1ccccc1` (centres unmarked) [Example 288]: the pIC50 is 5.70 to 6.00.

As to `CN1CCC(C(c2cccc(C(F)(F)F)c2)N(Cc2ccc(F)cn2)C(=O)C2CC2c2ccc(F)cc2)CC1` (centres unmarked) [Example 147], the pIC50 is 6.00 to 6.70.

In the case of `CC(c1ccc(S(C)(=O)=O)cc1)N(Cc1ccc(C(F)(F)F)nc1)C(=O)C1CC1c1ccc(F)cc1` (centres unmarked) [Example 126], the pIC50 is 6.00 to 6.70.

`CCS(=O)(=O)c1cccc(C(C2CC2)N(Cc2ccccn2)C(=O)C2CC2c2cccc(C(F)(F)F)c2)c1` (centres unmarked) [Example 216]: the pIC50 is 6.70 to 7.30.

`O=C(CS(=O)(=O)c1cccc(C(F)(F)F)c1)N(Cc1cccc[n+]1[O-])C(c1ccc(Cl)cc1)C1CC1` (centres unmarked) [Example 292]: the pIC50 was 6.00 to 6.70.

In the case of `CCS(=O)(=O)c1cccc(C(C2CC2)N(Cc2ccc(F)cn2)C(=O)C2CC2c2cccc(C(F)(F)F)c2)c1` (centres unmarked) [Example 212], the pIC50 is 6.70 to 7.30.

Regarding `O=C(C1CC1c1ccc(F)cc1)N(Cc1cccnn1)C(c1ccc(S(=O)(=O)C2CC2)cc1)C1CC1` (centres unmarked) [Example 249], the pIC50 was 6.70 to 7.30.

Regarding `CN1CC(C(c2ccc(OC(F)F)cc2)N(Cc2ccc(F)cn2)C(=O)C2CC2c2ccc(F)cc2)C1` (centres unmarked) [Example 154], the pIC50 was 6.00 to 6.70.

In the case of `CCS(=O)(=O)c1cccc(C(C2CC2)N(Cc2ccc(F)cn2)C(=O)C2CC2c2ccc(F)cc2F)c1` (centres unmarked) [Example 193], the pIC50 was 6.70 to 7.30.
